“Also recorded” adds a separate entry of the source.
Key:
[1] = target: T1, mouse niacin receptor (Mus musculus, UniProt Q9EP66); experiment: MAP kinase ELISA (phosphoERK1/2) in CHO cells expressing the mouse niacin receptor; assay type: cell-based; details: compared to niacin
T1 construct: expressed in transfected cells; host or cells: CHO cells
Protocol: A kit from Biosource (phosphoERK1/2 pT185pY187 ELISA, Catalog #KHO-0091) was used according to the following protocol.
The cells were serum-starved overnight prior to stimulating the cells with compound.
A. Compounds were dissolved in DMSO. […] PMA (100 ng/ml) was used as a positive control. B. Cell dishes were taken out of the incubator and placed on a rocker set to gentle rocking (set speed at 4). Compound was carefully added and cells were returned to the incubator to incubate for 5 min. At 4.5 min, the medium was aspirated from dishes in the order that the compound was added. Then 2 ml cold PBS was added and excess medium was removed by gentle swirling. The PBS was aspirated and 1 ml of PBS was added (1 ml for confluent 6 cm dish).
A. Cells were scraped from dish with a rubber policeman and transferred to a microfuge tube, then centrifuged at 3000 rpm at 4° C. for 5 minutes. B. The PBS was aspirated and cell pellet lysed in Cell Extraction Buffer (0.1% SDS) (250-300 μl for confluent 6 cm dish) for 30 min. on ice with vortexing at 10 min intervals. C. The mixture was then centrifuged at max speed (16,000×G) for 15 min. at 4° C. D. Clarified lysates were transferred to new microfuge tubes and protein concentration measure. […]
A. All reagents were at room temperature and mixed before use. […] The number of 8 well strips needed for assay was determined and bag was sealed and returned to 4° C. […]

[2] = target: T2, niacin receptor (Homo sapiens, UniProt Q8TDS4); experiment: MAP kinase ELISA (phosphoERK1/2) in CHO cells expressing the human niacin receptor; details: compared to niacin
T2 sequence (Q8TDS4 whole entry): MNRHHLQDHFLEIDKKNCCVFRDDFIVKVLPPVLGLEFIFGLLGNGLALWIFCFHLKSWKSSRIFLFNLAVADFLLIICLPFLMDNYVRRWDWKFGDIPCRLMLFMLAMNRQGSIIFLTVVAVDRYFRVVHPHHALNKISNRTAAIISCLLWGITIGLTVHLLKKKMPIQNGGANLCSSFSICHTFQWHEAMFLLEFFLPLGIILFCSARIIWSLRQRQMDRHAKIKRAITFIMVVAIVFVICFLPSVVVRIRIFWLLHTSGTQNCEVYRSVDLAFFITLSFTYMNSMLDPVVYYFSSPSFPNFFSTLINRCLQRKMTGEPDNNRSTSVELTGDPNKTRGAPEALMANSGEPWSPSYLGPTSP

[3] = target: T2, niacin receptor; experiment: Binding to the niacin receptor
[4] = tested on: women suffering from painful menstrual cramps; details: 80 women; 100 mg niacin twice daily, then every 2 to 3 hours during heavy cramps; cited from earlier work

T1 sequence (Q9EP66 whole entry): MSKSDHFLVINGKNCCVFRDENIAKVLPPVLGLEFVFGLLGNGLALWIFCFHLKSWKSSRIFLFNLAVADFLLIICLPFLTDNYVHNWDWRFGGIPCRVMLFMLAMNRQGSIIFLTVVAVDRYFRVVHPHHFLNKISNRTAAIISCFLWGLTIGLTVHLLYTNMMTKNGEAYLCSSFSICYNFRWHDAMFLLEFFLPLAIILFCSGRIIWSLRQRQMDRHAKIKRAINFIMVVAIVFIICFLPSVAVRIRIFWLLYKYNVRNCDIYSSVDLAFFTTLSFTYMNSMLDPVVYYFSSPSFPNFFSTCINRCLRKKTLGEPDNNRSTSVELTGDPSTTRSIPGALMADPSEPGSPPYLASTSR

SMILES: c1cncc(-c2nn[nH]n2)c1 [Compound 12]
- MAP kinase activation [1]: closely matches the profile of niacin; also recorded: behaves like niacin in a MAP kinase assay
- MAP kinase activation [2]: closely matches the profile of niacin; also recorded: behaves like niacin in a MAP kinase assay
- binding to the niacin receptor [3]: binds to the niacin receptor

SMILES: O=C(O)c1cccnc1 [niacin, nicotinic acid]
- subjects experiencing significant relief [4]: About 90%
